99 molecules from PubChem BioAssay AID540268 (Broad Institute, 2011) can be followed below.

SMILES strings stand for the structures. The source made the active and inactive calls. The rule behind the calls is not given here. Where only a bound is given, the exact number is not on record here.

The nature of the first assay: growth inhibition of yeast carrying parasite Hsp90, dose response, anti-malarial Hsp90 inhibitor project, ATP luminescence, 48 h, cherry-picked samples (AID 540268).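 For activity change, negative = inhibition: 0% = neutral control wells and -100% = positive control wells.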 The conditions noted are these: yeast expressing the parasite Hsp90, ATP luminescence.
Usually AC50 stands for the midpoint of the concentration-response curve, whichever way the signal moves. Regarding `CCc1ccc(OCC(=O)NNC(=S)NC(=O)C2CC2)c(Br)c1`, the AC50 is 1.12 µM. Same read-out and setting: in the case of `CCN1/C(=C\c2ccc3ccccc3[n+]2CC)Sc2cc(C)ccc21` it was 7.9 µM; in that of `CN(C)c1ccc(/C=C/c2ccc3c4ccccc4ccc3[n+]2-c2ccccc2)cc1`, 3.47 µM; in that of `NC(=Nc1nc(-c2ccccn2)cc2ccccc12)c1ccccn1`, 3.78 µM. The same measure, in the same setting: for `Cc1cccc(N2C(=O)/C(=C\c3ccc(OC(F)F)cc3)c3ccccc3C2=O)c1` the value was 4.64 µM; for `F[B-](F)(F)c1cc2cc(Br)ccc2s1`, 6.2 µM; for `Cc1ccccc1CS(=O)(=O)c1ncc(Cl)c(C(=O)Nc2ccc(F)cc2)n1`, 4.06 µM. Regarding `CC(=NNC(=S)N1CCN(c2ccccn2)CC1)c1nccs1`, the concentration at half-maximal activity (AC50) was 2.58 µM. As to `COc1cc(/C=C/[N+](=O)[O-])ccc1OC(=O)c1cccnc1`, the AC50 was 1.65 µM. As for `O=C(/C=C/c1cccc(C(F)(F)F)c1)Nc1cccc(C(F)(F)F)c1`, the half-maximal activity concentration (AC50) was 8.08 µM. Turning to `O=C(Nc1nc(-c2ccccn2)cs1)c1ccc(Br)s1`, the AC50 is 2.18 µM. Same read-out and setting: in the case of `CC(C)C(=O)NC(c1ccc(Cl)cc1Cl)c1ccc2cccnc2c1O` (centres undefined) it was 15.3 µM; in that of `Cc1ccc(CNC(=O)c2ccc(Cn3nc(C)c(Cl)c3C)o2)cc1`, 7.23 µM; in that of `CCOC(=O)/C(=C\c1cccnc1)C(=O)c1cc(C(C)=O)c(Nc2ccccc2)s1`, 3.93 µM. Still for that read-out and setting: in the case of `COc1ccccc1C(=O)Nc1nc2ccccc2[nH]1` it was 1.22 µM; in that of `CN(C)/C=C/C(=O)c1ccc2noc(-c3cccc(F)c3)c2c1`, 13.5 µM. As to `Cc1[nH]c2ccc(C(=O)N3CCN(c4cccc(Cl)c4)CC3)cc2c1C`, the half-maximal activity concentration (AC50) was 8.89 µM. The same measure, in the same setting: for `O=C(NC(c1ccc(Cl)cc1)c1cc(Cl)c2cccnc2c1O)c1cccnc1` (centres undefined) the value was 24.4 µM; for `CCCCCCC(=O)N(O)C1CC(=O)N(c2ccc(F)cc2)C1=O` (centres undefined), 1.32 µM. As for `O=[N+]([O-])/C=C/c1ccc2c(ccn2Cc2ccccc2)c1`, the concentration at half-maximal activity (AC50) was 4.35 µM. On the same count and under the same terms, for `CC(C)N=c1scc(-c2cccs2)n1/N=C/c1ccc(O)c(O)c1O` the value was 7.43 µM; for `COc1ccc(/C=C2/CCC(CN3CCOCC3)C2=O)cc1` (centres undefined), 0.751 µM; for `Oc1cc(OCc2ccccc2)ccc1-c1[nH]ncc1-c1ccccc1`, 9.04 µM.

Turning to `CCCCCC(=O)N(O)C1CC(=O)N(c2ccccc2)C1=O` (centres undefined), the AC50 is 1.13 µM.

On to `CC1CCN(c2nc(Cl)nc(Nc3ccc([N+](=O)[O-])cc3)n2)CC1`, for which the AC50 is 24 µM. Still for that read-out and setting: in the case of `CN(O)C(=S)c1ccccc1` it was 4.38 µM; in that of `N#C/C(=C\c1ccc([N+](=O)[O-])o1)C(=O)Nc1ccc(F)cc1`, 0.33 µM; in that of `Oc1ccc(C2=NN(c3ccccc3)C(c3ccc(F)cc3)C2)cc1` (centres undefined), 3.35 µM. Take `CCCC(=O)NC(c1ccco1)c1cc(Cl)c2cccnc2c1O` (centres undefined): the AC50 is 4.36 µM. Turning to `Cc1cc(N2CCN(C(=O)c3ccco3)CC2)n2nc(C)c(-c3ccccc3)c2n1`, the AC50 is 8.36 µM. Still for that read-out and setting: for `C[C@@H]1C[C@@H]2O[C@H]2/C=C\C=C\C(=O)Cc2c(Cl)c(O)cc(O)c2C(=O)O1` the value was 2.51 µM; for `CC1OC(CC(=O)O)CC2=C1C(=O)c1c(O)cccc1C2=O` (centres undefined), under 0.195 µM; for `O=Cc1ccc(O)c2ncccc12`, under 0.195 µM. As for `Cc1cc(C)cc(N2C(=O)C=CC2=O)c1`, the AC50 was under 0.195 µM. Turning to `CC(C)(C)c1cc(NCc2ccccn2)n2ncc(-c3ccccc3)c2n1`, the AC50 is 1.49 µM. On to `Nc1nonc1C(=O)NCCN=Cc1cc(Cc2ccccc2)cc(Br)c1O`, for which the AC50 is 2.3 µM. Regarding `COc1ccc2c(c1)[C@H]1[C@H](CO2)[C@H](c2ccccc2)[C@]2(C)C(=O)Nc3ccc(Br)cc3C(=O)N12`, the AC50 was 1.74 µM.

Regarding `Cc1ccc(-n2nnnc2C(Cl)c2nnnn2-c2ccc(C)cc2)cc1`, the AC50 is 0.903 µM. Still for that read-out and setting: for `COc1ccc(NC(=O)CCC(=O)N/N=C/c2ccc([N+](=O)[O-])s2)cc1` the value was 3.33 µM; for `Cc1ccc2c(c1)C(=O)C(=O)N2Cc1ccc(C(F)(F)F)cc1`, 7.78 µM; for `Cc1cccc(CS(=O)(=O)c2ncc(Cl)c(C(=O)Nc3ccc(F)cc3)n2)c1`, 2.92 µM.

With `CCN(CC)S(=O)(=O)c1cccc(C(=O)NCC(c2ccccc2)N(C)C)c1` (centres undefined), the AC50 is 3.92 µM. `Cc1cc(C2CCCCC2)n(O)c(=O)c1`: the AC50 was 1.19 µM.

As to `COc1cccc(N=Nc2ccc(O)c3ncccc23)c1`, the AC50 is 3.57 µM.

Take `CC(=O)NC(c1ccc(C(C)C)cc1)c1ccc2cccnc2c1O` (centres undefined): the AC50 was 2.24 µM. Turning to `O=C(Nc1nc(-c2ccccn2)cs1)c1ccc(-c2ccccc2F)o1`, the AC50 is 8.88 µM. With `O=C(O)c1cccc(N/N=C/c2cc(Br)cc(Br)c2O)c1`, the AC50 was 1.15 µM.

Take `CCC(=O)NC(c1cccs1)c1ccc2cccnc2c1O` (centres undefined): the concentration at half-maximal activity (AC50) was 7.69 µM. In the case of `O=C(O)c1cccc2c1Cc1cc(Cl)ccc1-2`, the AC50 is 1.13 µM. The same measure, in the same setting: for `O=[N+]([O-])c1ccc(C=Nc2ccc(Cl)cc2Cl)s1` the value was 8.6 µM; for `CCOC(=O)C1=Nc2ccccc2C1=[N+]=[N-]`, 0.532 µM; for `O=C(OCn1ncc(Cl)c(Cl)c1=O)c1cccc(C(F)(F)F)c1`, 5.36 µM. Same read-out and setting: for `O=C1c2ccccc2NC(c2ccc(-c3ccc(C(F)(F)F)cc3)o2)N1O` (centres undefined) the value was 7.62 µM; for `O=C(Nc1nnc(-c2ccc3c(c2)CCCC3)o1)c1ccc(Cl)cc1Cl`, 3.35 µM; for `Oc1c(CN2CCN(c3ccc(F)cc3)CC2)cc(Cl)c2cccnc12`, under 0.195 µM.

Regarding `O=[N+]([O-])c1ccc(O)c(C2CCCCC2)c1`, the AC50 was 4.84 µM. The same measure, in the same setting: for `O=C(CCc1ccccc1)NC(c1cccs1)c1cc(Cl)c2cccnc2c1O` (centres undefined) the value was 15.5 µM.

On to `O=C(Nc1ccccc1)Oc1cccc2cccnc12`, for which the AC50 was 2.12 µM. With `CCOC(=O)C1=C(N)N2C(=O)C(C)SC2=C(C(=O)OC)C1c1ccccc1OC` (centres undefined), the AC50 is 0.706 µM. Still for that read-out and setting: for `CCOc1ccc(C(Nc2cccnc2)c2cc(Cl)c3cccnc3c2O)cc1` (centres undefined) the value was 1.5 µM; for `CC(C)(C)c1cc(-c2nc(N)nc(N)n2)c(O)c(C(C)(C)C)c1`, 15.1 µM. Regarding `Cc1cc(-c2cc(-c3ccc(Cl)cc3)nc(N)c2C#N)co1`, the concentration at half-maximal activity (AC50) was 5.34 µM. Still for that read-out and setting: in the case of `O=[N+]([O-])c1ccc(O)c2ncccc12` it was 1.66 µM; in that of `CCOC(=O)c1ccc(N2C(=O)CC(N3CCC(C(=O)OCC)CC3)C2=O)cc1` (centres undefined), under 0.195 µM. Still for that read-out and setting: for `Cc1ccc(C(=O)OCn2ncc(Cl)c(Cl)c2=O)cc1` the value was 3.23 µM; for `CCCCNc1nc(N)nc(-c2cc(Cl)ccc2O)n1`, 4.58 µM. The same measure, in the same setting: in the case of `COc1ccc2c(c1)[C@H]1[C@H](CO2)[C@H](c2ccccc2)[C@]2(C)C(=O)Nc3ccc(C)cc3C(=O)N12` it was 4.75 µM; in that of `CCCCCCCCCCCCCCCC(O)C[N+](C)(C)CCO` (centres undefined), 6.61 µM; in that of `O=C(Oc1c(Cl)cc(Cl)c2cccnc12)c1ccco1`, 0.696 µM. As to `O=C(NN1C(=O)/C(=C\c2ccc(O)c([N+](=O)[O-])c2)SC1=S)c1ccccc1Cl`, the AC50 was 5.92 µM. Regarding `CCC(=O)OC1(C)C(=O)C2=COC(c3ccc(OC)cc3)=CC2=C(Br)C1=O` (centres undefined), the half-maximal activity concentration (AC50) was 2.81 µM.

Take `Cc1cc(C)c(S(=O)(=O)N2CCC(C(=O)NCc3ccc(Cl)cc3Cl)CC2)c(C)c1`: the half-maximal activity concentration (AC50) is 0.835 µM. Turning to `Cc1ccc(C(=O)N2CCN(c3ccccc3Cl)CC2)cc1[N+](=O)[O-]`, the AC50 is 4.09 µM.

For `CCCOC(=O)c1ccc(Oc2cn[nH]c2-c2ccc(OC)cc2O)cc1`, the concentration at half-maximal activity (AC50) is 6 µM. On the same count and under the same terms, in the case of `Cc1c(Cl)cccc1N=Cc1ccc([N+](=O)[O-])s1` it was 8.3 µM. For the molecule `CC(C)(C)c1ccc(C(=O)CC(Sc2ccc(Cl)cc2)C(=O)O)cc1` (centres undefined), the AC50 was 7.29 µM.

Take `COC(=O)[C@@H]1[C@@H](C#N)C2(c3ccccc3-c3ccccc32)N(c2ccc(Cl)cc2)N1C#N`: the AC50 is 2.81 µM. Same read-out and setting: for `Cc1ccc(OCC(=O)NNC(=S)NC(=O)C2CC2)c(C)c1` the value was 4.16 µM; for `COc1ccccc1N=Nc1ccc(O)c2ncccc12`, 4.31 µM; for `CCCCC(=O)NC(c1ccco1)c1cc(Cl)c2cccnc2c1O` (centres undefined), 4.6 µM. On the same count and under the same terms, for `COC(=O)c1ccc(N2C(=O)CC(N3CCC(O)(c4ccc(Br)cc4)CC3)C2=O)cc1` (centres undefined) the value was 3.37 µM. Regarding `CCOc1ccc2c(ccc(/C=C/c3cc(C)c4cccnc4c3O)[n+]2C)c1`, the AC50 is 4.11 µM. Same read-out and setting: for `CC(=NNC(=S)N1CC2CCC(CC2)C1)c1ccncn1` the value was 2.36 µM; for `O=C(N/N=C/c1cc2c3c(c1O)CCCN3CCC2)c1ccccc1O`, 1.42 µM. For `O=C(/C=C/c1ccc(F)cc1)NC(=S)NNC(=O)c1cnccn1`, the AC50 was 2.71 µM. `CCOC(=O)c1sc(-c2ccc(C(F)(F)F)cc2)nc1O`: the AC50 is 2.59 µM.

In the case of `Oc1c(C(c2ccc(Cl)cc2)N2CCCC2)cc(Cl)c2cccnc12` (centres undefined), the concentration at half-maximal activity (AC50) was 1.58 µM.

Turning to `CC(C)(C)c1nn(-c2ccccc2)c2[nH]c(=O)c(C=O)cc12`, the AC50 was 1.31 µM. Consider `COc1ccc2c3c(ccc2c1)C(=O)/C(=C/O)CC3`, for which the concentration at half-maximal activity (AC50) was 4.29 µM.

Consider `Cc1ccccc1Oc1cc(-n2ncc(Cl)c(Cl)c2=O)ncn1`, for which the concentration at half-maximal activity (AC50) is 1.11 µM. Still for that read-out and setting: for `Cc1ccc(N=Cc2cc(Cc3ccccc3Cl)cc([N+](=O)[O-])c2O)c(O)c1` the value was 0.216 µM; for `[O-][n+]1cccc2c(Br)cc(Br)c(O)c21`, 3.55 µM. Still for that read-out and setting: for `O=C(N/N=C/c1sc2ccccc2c1O)c1cccc2ccccc12` the value was 17 µM; for `CCCCCCCCCCOC(=O)Cn1c(COc2cccc(C)c2)[n+](C)c2ccccc21`, 15.5 µM; for `COc1cccc(/C=N/NC(=O)C(=O)Nc2ccccc2OC(F)(F)C(F)F)c1O`, 0.731 µM.

The same assay, now with this note: yeast expressing the parasite Hsp90, ATP luminescence, at 26 µM (top of the series).
For `Cc1ccc(N2C(=O)C3C4C=CC(CNC(=S)Nc5ccc(F)cc5)(O4)C3C2=O)cc1` (centres undefined), the activity change, negative = inhibition was 9.97% (inactive).

As for `CC1Oc2cc3oc4c(O)c(O)ccc4c(=O)c3c(O)c2C1(C)C` (centres undefined), the activity change, negative = inhibition is -0.538% (inactive). Same read-out and setting: for `NC(=O)/C=C\C(=O)Nc1cccc(C(F)(F)F)c1` the value was 12.6% (inactive); for `O=C(N/N=C/c1ccc([N+](=O)[O-])o1)c1sc2ccccc2c1Cl`, 18.4% (inactive).
